Counter-ions that a name gives are not always drawn.

The target of this test is T1, recombinant IRAK-4 kinase (Homo sapiens, UniProt Q9NWZ3).
T1 construct: purchased Millipore, USA
T1 sequence (Q9NWZ3 1-460): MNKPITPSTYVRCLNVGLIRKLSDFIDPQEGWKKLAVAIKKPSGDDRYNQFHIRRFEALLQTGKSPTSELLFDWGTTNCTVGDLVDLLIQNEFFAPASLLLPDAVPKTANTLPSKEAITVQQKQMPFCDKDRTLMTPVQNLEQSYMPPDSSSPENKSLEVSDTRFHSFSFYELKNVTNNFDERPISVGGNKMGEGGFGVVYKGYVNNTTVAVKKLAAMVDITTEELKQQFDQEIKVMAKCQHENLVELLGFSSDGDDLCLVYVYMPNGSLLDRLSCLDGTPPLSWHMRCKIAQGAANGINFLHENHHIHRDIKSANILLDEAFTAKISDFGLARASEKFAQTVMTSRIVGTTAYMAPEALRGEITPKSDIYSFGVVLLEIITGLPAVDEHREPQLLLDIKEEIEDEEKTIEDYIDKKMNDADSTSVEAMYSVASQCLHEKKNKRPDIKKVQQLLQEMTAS
Kind of test: IRAK-4 Biochemical Assay (TR-FRET). The note with it: 30 min pre-incubation, 100 nM Biotin Histone H3, 20 μM ATP, read-out: IC50 values for IRAK4 activity. As to the method: Compounds were tested for their potential to inhibit IRAK-4 enzyme in a TR-FRET assay using recombinant IRAK-4 kinase from Millipore, USA. The assay buffer was 50 mM Tris-HCl pH 7.5, 20 mM MgCl2, 1 mM EGTA, 2 mM DTT, 3 mM MnCl2 and 0.01% Tween 20.5 ng of IRAK-4 kinase was used for the assay. After pre-incubation of enzyme with test compound for 30 minutes at room temperature, a substrate mixture containing 100 nM Biotin Histone H3 (Millipore, USA) and 20 μM ATP (Sigma, USA) was added and the reaction was incubated for 30 min. Post incubation, the reaction was stopped by the addition of stop mix containing 40 mM EDTA, 1 nM of Europium-Anti-Phospho-Histone H3 (Ser10) antibody (Perkin Elmer, USA) and 20 nM SureLight Allophycocyanin-Streptavidin (Perkin Elmer, USA). The fluorescence emission at 615 nm and 665 nm were measured at an excitation of 340 nm and the percent inhibition was estimated from the ratio of the fluorescence intensities [(F665/F615)×10000]. The compounds were initially screened at 1 μM and 10 μM concentrations and potent compounds (>50% inhibition at 1 μM) were taken for dose response studies. The IC50 values were estimated by fitting the dose-response data to sigmoidal dose response (variable slope), curve fitting program using Graphpad Prism software Version 6.01.
(Time-resolved FRET reads energy transfer from a long-lived donor to a nearby acceptor.)
For orientation: IC50 means the concentration needed to halve the response being measured. Consider `Cc1cc(-c2nc(C(=O)Nc3cc4cnn(C5CC5)c4cc3C3CC3)co2)ccn1` [Example 36, N-(1,6-dicyclopropyl-1H-indazol-5-yl)-2-(2-methylpyridin-4-yl)oxazole-4-carboxamide hydrochloride], for which the IC50 lay within 50 to 100 nM.

As to `Cc1cc(-c2nc(C(=O)Nc3cc4cnn(C)c4cc3N3CC[C@H](O)C3)co2)ccn1` [Example 115, (S)—N-(6-(3-hydroxypyrrolidin-1-yl)-1-methyl-1H-indazol-5-yl)-2-(2-methylpyridin-4-yl)oxazole-4-carboxamide], the IC50 is under 50 nM.

For the molecule `Cn1cc2cc(NC(=O)c3cccc(N4CC[C@H](N)C4)n3)c(C3CC3)cc2n1` [Example 48, (S)-6-(3-aminopyrrolidin-1-yl)-N-(6-cyclopropyl-2-methyl-2H-indazol-5-yl)picolinamide], the IC50 is over 100 nM.

On to `Cn1cc2cc(NC(=O)c3cccc(N4CC[C@@H](O)C4)n3)c(N3CCCCC3)cc2n1` [Example 38, (R)-6-(3-hydroxypyrrolidin-1-yl)-N-(2-methyl-6-(piperidin-1-yl)-2H-indazol-5-yl)picolinamide], for which the IC50 was under 50 nM.

Turning to `COCCn1ncc2cc(NC(=O)c3coc(-c4ccnc(C)c4)n3)c(N3CCC(N)CC3)cc21` [Example 108, N-(6-(4-aminopiperidin-1-yl)-1-(2-methoxyethyl)-1H-indazol-5-yl)-2-(2-methylpyridin-4-yl)oxazole-4-carboxamide hydrochloride], the IC50 was under 50 nM.

For `CC(=O)Nc1cc(-c2nc(C(=O)Nc3cc4cn(C)nc4cc3N3CCCCC3)co2)ccn1` [Example 84, 2-(2-acetamidopyridin-4-yl)-N-(2-methyl-6-(piperidin-1-yl)-2H-indazol-5-yl)oxazole-4-carboxamide], the IC50 was under 50 nM.

For `Cn1ncc2cc(NC(=O)c3cccc(N4CC[C@H](O)C4)n3)c(C3CC3)cc21` [Example 37, (S)—N-(6-cyclopropyl-1-methyl-1H-indazol-5-yl)-6-(3-hydroxypyrrolidin-1-yl)picolinamide], the IC50 was over 100 nM.

For the molecule `Cn1cc2cc(NC(=O)c3coc(-c4ccnc(Cl)c4)n3)c(N3CCCCC3)cc2n1` [Example 15, 2-(2-chloropyridin-4-yl)-N-(2-methyl-6-(piperidin-1-yl)-2H-indazol-5-yl)oxazole-4-carboxamide hydrochloride], the 50% inhibitory concentration (IC50) was under 50 nM.

Regarding `Cc1cc(-c2nc(C(=O)Nc3cc4cn(C)nc4cc3N3CC[C@@H](O)C3)co2)ccn1` [Example 65, (R)—N-(6-(3-hydroxypyrrolidin-1-yl)-2-methyl-2H-indazol-5-yl)-2-(2-methylpyridin-4-yl)oxazole-4-carboxamide], the IC50 was under 50 nM.

As for `COc1cc(-c2nc(C(=O)Nc3cc4cn(C)nc4cc3N3CCCCC3)co2)ccn1` [Example 103, 2-(2-methoxypyridin-4-yl)-N-(2-methyl-6-(piperidin-1-yl)-2H-indazol-5-yl)oxazole-4-carboxamide], the IC50 is under 50 nM.

Turning to `Cn1cc2cc(NC(=O)c3cccc(-c4cn[nH]c4)n3)c(N3CCCCC3)cc2n1` [Example 1, N-(2-methyl-6-(piperidin-1-yl)-2H-indazol-5-yl)-6-(1H-pyrazol-4-yl) picolinamide], the IC50 is under 50 nM.

As to `Cc1cc(-c2nc(C(=O)Nc3cc4c(C)nn(C)c4cc3N3CCC(O)CC3)co2)ccn1` [Example 81, N-(6-(4-hydroxypiperidin-1-yl)-1,3-dimethyl-1H-indazol-5-yl)-2-(2-methylpyridin-4-yl)oxazole-4-carboxamide], the IC50 was under 50 nM.

Consider `Cc1cc(-c2nc(C(=O)Nc3cc4cnn(C)c4cc3N3CCCC3)co2)ccn1` [Example 62, N-(1-methyl-6-(pyrrolidin-1-yl)-1H-indazol-5-yl)-2-(2-methylpyridin-4-yl)oxazole-4-carboxamide], for which the half-inhibitory concentration (IC50) was under 50 nM.

`Cn1ncc2cc(NC(=O)c3coc(N4CC[C@H](N)C4)n3)c(C3CC3)cc21` [Example 51, (S)-2-(3-aminopyrrolidin-1-yl)-N-(6-cyclopropyl-1-methyl-1H-indazol-5-yl)oxazole-4-carboxamide]: the IC50 was over 100 nM.

`Cn1cc2cc(NC(=O)c3coc(-c4ccnc(N)c4)n3)c(N3CC[C@@H](O)C3)cc2n1` [Example 105, (R)-2-(2-aminopyridin-4-yl)-N-(6-(3-hydroxypyrrolidin-1-yl)-2-methyl-2H-indazol-5-yl)oxazole-4-carboxamide hydrochloride]: the IC50 was under 50 nM.

As to `Cn1cc(-c2cccc(C(=O)Nc3cc4cn(C5CCCC5)nc4cc3C3CC3)n2)cn1` [Example 18, N-(2-cyclopentyl-6-cyclopropyl-2H-indazol-5-yl)-6-(1-methyl-1H-pyrazol-4-yl)picolinamide], the IC50 was under 50 nM.

Take `Cn1cc2cc(NC(=O)c3coc(-c4ccnc(N)c4)n3)c(N3CCCC(O)C3)cc2n1` (centres unmarked) [Example 102, 2-(2-aminopyridin-4-yl)-N-(6-(3-hydroxypiperidin-1-yl)-2-methyl-2H-indazol-5-yl)oxazole-4-carboxamide hydrochloride]: the IC50 was under 50 nM.

`Cn1cc2cc(NC(=O)c3coc(N4CC[C@H](N)C4)n3)c(N3CCCCC3)cc2n1` [Example 44, (S)-2-(3-aminopyrrolidin-1-yl)-N-(2-methyl-6-(piperidin-1-yl)-2H-indazol-5-yl)oxazole-4-carboxamide]: the IC50 was under 50 nM.

Regarding `Cc1ccc(C(=O)Nc2cc3cn(C)nc3cc2N2CCCCC2)nc1-c1ccc(N)nc1` [Example 29, 6′-amino-3-methyl-N-(2-methyl-6-(piperidin-1-yl)-2H-indazol-5-yl)-[2,3′-bipyridine]-6-carboxamide hydrochloride], the half-inhibitory concentration (IC50) is under 50 nM.

For `C[C@H](O)Cn1cc(-c2cccc(C(=O)Nc3cc4cn(C)nc4cc3N3CCCCC3)n2)cn1` [Example 34, (S)-6-(1-(2-hydroxypropyl)-1H-pyrazol-4-yl)-N-(2-methyl-6-(piperidin-1-yl)-2H-indazol-5-yl)picolinamide], the IC50 was under 50 nM.

Consider `Cn1ncc2cc(NC(=O)c3coc(-c4ccnc(O)c4)n3)c(N3CCC(O)CC3)cc21` [Example 113, N-(6-(4-hydroxypiperidin-1-yl)-1-methyl-1H-indazol-5-yl)-2-(2-hydroxypyridin-4-yl)oxazole-4-carboxamide], for which the IC50 was under 50 nM.

For `Cc1cc(-c2nc(C(=O)Nc3cc4cnn(C)c4cc3C3CC3)co2)ccn1` [Example 45, N-(6-cyclopropyl-1-methyl-1H-indazol-5-yl)-2-(2-methylpyridin-4-yl)oxazole-4-carboxamide], the IC50 was under 50 nM.

`Cn1cc2cc(NC(=O)c3coc(N4CC[C@H](O)C4)n3)c(N3CCCCC3)cc2n1` [Example 52, (S)-2-(3-hydroxypyrrolidin-1-yl)-N-(2-methyl-6-(piperidin-1-yl)-2H-indazol-5-yl)oxazole-4-carboxamide]: the IC50 was under 50 nM.

Turning to `Cn1cc2cc(NC(=O)c3coc(-c4cccnc4O)n3)c(N3CCCCC3)cc2n1` [Example 32, 2-(2-hydroxypyridin-3-yl)-N-(2-methyl-6-(piperidin-1-yl)-2H-indazol-5-yl)oxazole-4-carboxamide], the IC50 is under 50 nM.

Regarding `CCOP(=O)(OCC)OC1CCN(c2cc3c(cnn3C)cc2NC(=O)c2coc(-c3ccnc(C)c3)n2)CC1` [Example 128, Diethyl (1-(1-methyl-5-(2-(2-methylpyridin-4-yl)oxazole-4-carboxamido)-1H-indazol-6-yl)piperidin-4-yl) phosphate], the IC50 was in the range of 50 to 100 nM.

Take `COCCn1nc(C)c2cc(NC(=O)c3coc(-c4ccnc(C)c4)n3)c(N3CCC(CO)CC3)cc21` [Example 110, N-(6-(4-(hydroxymethyl)piperidin-1-yl)-1-(2-methoxyethyl)-3-methyl-1H-indazol-5-yl)-2-(2-methylpyridin-4-yl)oxazole-4-carboxamide]: the IC50 is under 50 nM.

For the molecule `COCCn1cc2cc(NC(=O)c3coc(-c4ccnc(C)c4)n3)c(N3CCC(O)CC3)cc2n1` [Example 76, N-(6-(4-hydroxypiperidin-1-yl)-2-(2-methoxyethyl)-2H-indazol-5-yl)-2-(2-methylpyridin-4-yl)oxazole-4-carboxamide], the IC50 was under 50 nM.

As for `Cc1ccc(-c2nc(C(=O)Nc3cc4cn(C5CCCC5)nc4cc3C3CC3)co2)cn1` [Example 28, N-(2-cyclopentyl-6-cyclopropyl-2H-indazol-5-yl)-2-(6-methylpyridin-3-yl)oxazole-4-carboxamide], the IC50 was under 50 nM.

In the case of `Cc1cc(-c2nc(C(=O)Nc3cc4cn(C)nc4cc3C3CCCCC3)co2)ccn1` [Example 11, N-(6-cyclohexyl-2-methyl-2H-indazol-5-yl)-2-(2-methylpyridin-4-yl)oxazole-4-carboxamide hydrochloride], the IC50 is under 50 nM.
